Data on 16 molecules can be found in ChEMBL document CHEMBL1909046, “DrugMatrix in vitro pharmacology data”.

Assay [1] concerns the target Platelet-activating factor receptor (Homo sapiens, UniProt P25105). Format: tissue-based. Note: in other assays of this panel Not Active means under 50% inhibition at 10 µM.
Assay [2] has as its target T1, Angiotensin-converting enzyme (Oryctolagus cuniculus, UniProt P12822).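 Note: enzymatic inhibition of angiotensin-converting enzyme measured with FAPGG as the substrate; in other assays of this panel Not Active means under 50% inhibition at 10 µM.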
T1 sequence (P12822 whole entry): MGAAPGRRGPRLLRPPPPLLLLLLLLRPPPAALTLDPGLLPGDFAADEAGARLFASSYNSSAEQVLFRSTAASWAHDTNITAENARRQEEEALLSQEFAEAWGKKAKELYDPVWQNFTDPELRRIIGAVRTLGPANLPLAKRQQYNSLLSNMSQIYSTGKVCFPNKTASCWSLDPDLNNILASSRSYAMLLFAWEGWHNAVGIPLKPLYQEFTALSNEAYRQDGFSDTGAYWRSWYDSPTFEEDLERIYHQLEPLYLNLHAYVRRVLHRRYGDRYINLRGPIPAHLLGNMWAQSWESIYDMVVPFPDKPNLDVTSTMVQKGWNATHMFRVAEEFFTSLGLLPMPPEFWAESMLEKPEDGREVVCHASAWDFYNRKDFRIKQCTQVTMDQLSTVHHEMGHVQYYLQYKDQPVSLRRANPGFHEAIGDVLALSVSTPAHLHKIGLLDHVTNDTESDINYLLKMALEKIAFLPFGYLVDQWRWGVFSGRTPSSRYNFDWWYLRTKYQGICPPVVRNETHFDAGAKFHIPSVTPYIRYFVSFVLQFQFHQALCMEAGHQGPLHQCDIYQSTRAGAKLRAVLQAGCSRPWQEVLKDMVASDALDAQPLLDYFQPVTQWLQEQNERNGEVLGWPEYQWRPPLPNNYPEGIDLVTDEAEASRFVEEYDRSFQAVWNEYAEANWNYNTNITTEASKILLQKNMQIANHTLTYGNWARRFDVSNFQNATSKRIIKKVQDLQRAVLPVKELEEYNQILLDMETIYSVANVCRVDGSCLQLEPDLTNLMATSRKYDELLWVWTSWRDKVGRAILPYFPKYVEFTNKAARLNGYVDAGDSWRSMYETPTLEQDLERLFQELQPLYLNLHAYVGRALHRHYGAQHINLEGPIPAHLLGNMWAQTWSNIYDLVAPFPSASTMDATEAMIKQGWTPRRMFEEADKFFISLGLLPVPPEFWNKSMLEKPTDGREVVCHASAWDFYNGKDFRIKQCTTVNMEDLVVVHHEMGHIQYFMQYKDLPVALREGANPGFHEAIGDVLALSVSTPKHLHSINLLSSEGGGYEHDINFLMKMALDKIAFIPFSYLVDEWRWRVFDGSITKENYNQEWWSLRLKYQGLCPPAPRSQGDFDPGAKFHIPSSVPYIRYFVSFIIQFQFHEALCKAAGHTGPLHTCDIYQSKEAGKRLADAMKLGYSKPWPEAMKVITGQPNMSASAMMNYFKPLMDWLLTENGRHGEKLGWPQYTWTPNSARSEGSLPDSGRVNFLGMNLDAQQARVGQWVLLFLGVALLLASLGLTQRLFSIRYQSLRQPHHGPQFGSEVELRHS
The format is tissue-based, Lung.

A further assay addresses T2, Adenosine receptor A3 (Homo sapiens, UniProt P0DMS8).
T2 sequence (P0DMS8 whole entry): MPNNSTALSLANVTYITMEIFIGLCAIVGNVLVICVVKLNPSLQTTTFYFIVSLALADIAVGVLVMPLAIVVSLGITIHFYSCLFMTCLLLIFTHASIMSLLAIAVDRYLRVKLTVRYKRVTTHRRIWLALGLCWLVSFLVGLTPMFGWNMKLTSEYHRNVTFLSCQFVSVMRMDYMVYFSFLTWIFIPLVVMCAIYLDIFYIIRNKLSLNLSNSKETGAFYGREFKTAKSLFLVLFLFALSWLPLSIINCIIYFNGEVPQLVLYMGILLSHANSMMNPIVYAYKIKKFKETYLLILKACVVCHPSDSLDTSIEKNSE
The format is cell membranes, CHO-K1, Membrane. Particulars: for Ki: read-out: Ki.

The target of another assay is T3, D(4) dopamine receptor (Homo sapiens, UniProt P21917).
T3 sequence (P21917 whole entry): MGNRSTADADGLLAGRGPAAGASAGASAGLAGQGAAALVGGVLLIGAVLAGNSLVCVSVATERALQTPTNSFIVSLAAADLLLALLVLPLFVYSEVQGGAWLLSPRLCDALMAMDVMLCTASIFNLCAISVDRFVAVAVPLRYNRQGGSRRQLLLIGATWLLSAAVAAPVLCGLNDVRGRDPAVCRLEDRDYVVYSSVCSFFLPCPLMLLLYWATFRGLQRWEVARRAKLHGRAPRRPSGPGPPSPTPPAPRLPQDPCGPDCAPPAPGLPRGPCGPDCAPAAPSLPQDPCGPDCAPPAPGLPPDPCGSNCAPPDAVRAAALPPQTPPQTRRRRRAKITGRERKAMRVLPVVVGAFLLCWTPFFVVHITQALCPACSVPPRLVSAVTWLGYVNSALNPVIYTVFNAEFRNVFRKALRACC
Briefly: DRUGMATRIX: Dopamine D4.2 radioligand binding (ligand: [3H] Spiperone). Conditions: cho-k1; Not Active = under 50% inhibition at 10 µM. The format is cell membranes, CHO-K1, Membrane.

Assay [3] can be described thus: DRUGMATRIX: Phosphodiesterase PDE3 enzyme inhibition (substrate: [3H]cAMP + cAMP). The format is tissue-based, Homo sapiens. Conditions: platelet, Not Active = under 50% inhibition at 10 µM.
Another assay concerns the target T4, Calcitonin receptor (Homo sapiens, UniProt P30988). Note: in other assays of this panel Not Active means under 50% inhibition at 10 µM.
T4 sequence (P30988 whole entry): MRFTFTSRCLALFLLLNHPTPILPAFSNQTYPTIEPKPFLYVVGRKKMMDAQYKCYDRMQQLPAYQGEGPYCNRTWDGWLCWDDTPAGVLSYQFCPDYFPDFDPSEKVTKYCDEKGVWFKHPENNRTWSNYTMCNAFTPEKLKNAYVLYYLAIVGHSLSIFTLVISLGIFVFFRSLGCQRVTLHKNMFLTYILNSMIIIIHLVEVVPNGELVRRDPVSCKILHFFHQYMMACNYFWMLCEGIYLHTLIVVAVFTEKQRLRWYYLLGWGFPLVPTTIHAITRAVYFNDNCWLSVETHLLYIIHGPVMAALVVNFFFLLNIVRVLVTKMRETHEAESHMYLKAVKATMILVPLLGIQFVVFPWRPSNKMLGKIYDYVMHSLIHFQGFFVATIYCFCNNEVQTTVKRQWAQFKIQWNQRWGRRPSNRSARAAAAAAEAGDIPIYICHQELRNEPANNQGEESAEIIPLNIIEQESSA
The format is cell membranes, Membrane. Particulars: t47d.

Broadly, the IC50 is the concentration needed to halve the response being measured. What is called Ki is the equilibrium dissociation constant of an inhibitor or competing ligand from its target.

Sequence of Platelet-activating factor receptor (P25105 whole entry): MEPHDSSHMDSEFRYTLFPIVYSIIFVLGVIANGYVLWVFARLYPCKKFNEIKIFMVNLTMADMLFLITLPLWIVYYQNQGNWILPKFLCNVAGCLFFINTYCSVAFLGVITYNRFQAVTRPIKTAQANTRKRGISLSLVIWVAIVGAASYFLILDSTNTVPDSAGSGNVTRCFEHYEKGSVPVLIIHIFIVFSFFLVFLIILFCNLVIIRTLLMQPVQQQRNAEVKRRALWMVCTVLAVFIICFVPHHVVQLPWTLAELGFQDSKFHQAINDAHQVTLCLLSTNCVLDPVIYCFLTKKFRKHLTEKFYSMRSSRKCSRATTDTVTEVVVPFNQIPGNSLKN

As for `Oc1c(Cl)cc(Cl)c(Cl)c1Cc1c(O)c(Cl)cc(Cl)c1Cl` [HEXACHLOROPHENE], the 50% inhibitory concentration (IC50) entry in assay [1] was “Not Active”; in assay [2] it was “Not Active”; at Adenosine receptor A3 (read-out: IC50) it was 639 nM; at D(4) dopamine receptor it was “Not Active”; in assay [3] (read-out: IC50), 1850 nM; on Calcitonin receptor, “Not Active”. Moreover, the Ki on Adenosine receptor A3 was determined as 361 nM.
Take `NNc1nncc2ccccc12` [HYDRALAZINE]: the IC50 result (in assay [1]; in assay [2]; at Adenosine receptor A3 (cho-k1); on D(4) dopamine receptor; in assay [3]; on Calcitonin receptor) was “Not Active” each time. Moreover, the Ki entry in assay [3] is reported as “Not Active”.
As for `CC(=O)[C@@]1(O)CC[C@H]2[C@@H]3CCC4=CC(=O)CC[C@]4(C)[C@H]3CC[C@@]21C` [HYDROXYPROGESTERONE], the IC50 result is “Not Active” in assay [1]; “Not Active” in assay [2]; 4730 nM at Adenosine receptor A3 (read-out: IC50); “Not Active” on D(4) dopamine receptor; “Not Active” in assay [3]; “Not Active” on Calcitonin receptor. The results for the Ki (on Adenosine receptor A3; in assay [3]) were 2670 nM and “Not Active”, respectively.
As to `COC1=C(OC)C(=O)C(CCCCCCCCCCO)=C(C)C1=O` [IDEBENONE], the IC50 entry (in assay [1]; in assay [2]; at Adenosine receptor A3 (cho-k1); on D(4) dopamine receptor; in assay [3]; at Calcitonin receptor) was “Not Active” in each case. Further, the Ki result in assay [3] is listed as “Not Active”.
On to `CC(C)NNC(=O)c1ccncc1` [IPRONIAZID], for which the IC50 entry (in assay [1]; in assay [2]; on Adenosine receptor A3 (cho-k1); on D(4) dopamine receptor; in assay [3]; on Calcitonin receptor) was “Not Active” throughout. In assay [3], the Ki result is reported as “Not Active”.
As for `Cc1c(OCC(F)(F)F)ccnc1C[S+]([O-])c1nc2ccccc2[nH]1` (stereo not drawn) [LANSOPRAZOLE], the IC50 entry (in assay [1]; in assay [2]; against Adenosine receptor A3 (cho-k1); on D(4) dopamine receptor; in assay [3]; on Calcitonin receptor) was “Not Active” each time. Also, the Ki result in assay [3] is reported as “Not Active”.
On to `O=c1cc(N2CCOCC2)oc2c(-c3ccccc3)cccc12` [LY-294002], for which the IC50 result (in assay [1]; in assay [2]; against Adenosine receptor A3 (cho-k1); at D(4) dopamine receptor; in assay [3]; at Calcitonin receptor) was “Not Active” throughout. In addition, the Ki entry in assay [3] is reported as “Not Active”.
For the molecule `COc1ccc2[nH]cc(CCNC(C)=O)c2c1` [MELATONIN], the IC50 entry (in assay [1]; in assay [2]; on Adenosine receptor A3 (cho-k1); at D(4) dopamine receptor; in assay [3]; on Calcitonin receptor) was “Not Active” in each case. The Ki result in assay [3] is recorded as “Not Active”.
As to `NC(=O)C[S+]([O-])C(c1ccccc1)c1ccccc1` (stereo not drawn) [MODAFINIL], the IC50 entry (in assay [1]; in assay [2]; against Adenosine receptor A3 (cho-k1); at D(4) dopamine receptor; in assay [3]; at Calcitonin receptor) was “Not Active” throughout. The Ki entry in assay [3] was “Not Active”.
With `CCN(CC)CCOCCC1=CCC2CC1C2(C)C` (stereo not drawn) [MYRTECAINE], the IC50 result (in assay [1]; in assay [2]; at Adenosine receptor A3 (cho-k1); on D(4) dopamine receptor; in assay [3]; at Calcitonin receptor) was “Not Active” in each case. In addition, the Ki result in assay [3] is listed as “Not Active”.
For the molecule `O=C(O)c1cccnc1Nc1cccc(C(F)(F)F)c1` [NIFLUMIC ACID], the IC50 result (in assay [1]; in assay [2]; against Adenosine receptor A3 (cho-k1); at D(4) dopamine receptor; in assay [3]; at Calcitonin receptor) was “Not Active” each time. For the same molecule, in assay [3], the Ki result is “Not Active”.
Regarding `O=C(N/N=C/c1ccc([N+](=O)[O-])o1)c1cc([N+](=O)[O-])cc([N+](=O)[O-])c1O` [NIFURSOL], the IC50 result (in assay [1]; in assay [2]; against Adenosine receptor A3 (cho-k1); at D(4) dopamine receptor; in assay [3]; on Calcitonin receptor) was “Not Active” throughout. Also, the Ki entry in assay [3] is “Not Active”.
For the molecule `COC(=O)Nc1nc2ccc(C(=O)c3cccs3)cc2[nH]1` [NOCODAZOLE], the IC50 result (in assay [1]; in assay [2]; against Adenosine receptor A3 (cho-k1); on D(4) dopamine receptor; in assay [3]; at Calcitonin receptor) was “Not Active” throughout. Moreover, the Ki entry in assay [3] is on record as “Not Active”.
`C#CC1(O)CC[C@H]2[C@@H]3CCC4=CC(=O)CC[C@@H]4[C@H]3CC[C@@]21CC` (stereo partly drawn) [NORGESTREL]: the IC50 result (in assay [1]; in assay [2]; at Adenosine receptor A3 (cho-k1); on D(4) dopamine receptor; in assay [3]; at Calcitonin receptor) was “Not Active” each time. In assay [3], the Ki result is “Not Active”.
Consider `COC(=O)Nc1nc2ccc([S+]([O-])c3ccccc3)cc2[nH]1` (stereo not drawn) [OXFENDAZOLE], for which the IC50 entry (in assay [1]; in assay [2]; against Adenosine receptor A3 (cho-k1); on D(4) dopamine receptor; in assay [3]; on Calcitonin receptor) was “Not Active” in each case. Also, the Ki result in assay [3] was “Not Active”.
Turning to `CC(=O)O[C@H]1C(=O)[C@@]2(C)[C@H]([C@H](OC(=O)c3ccccc3)[C@]3(O)C[C@H](OC(=O)[C@H](O)[C@@H](NC(=O)c4ccccc4)c4ccccc4)C(C)=C1C3(C)C)[C@]1(OC(C)=O)CO[C@@H]1C[C@@H]2O` [PACLITAXEL], the IC50 entry (in assay [1]; in assay [2]; on Adenosine receptor A3 (cho-k1); at D(4) dopamine receptor; in assay [3]; at Calcitonin receptor) was “Not Active” each time. Further, the Ki result in assay [3] is on record as “Not Active”.
